Values joined by “and” are separate entries in the source; they are usually repeats but may differ in a detail not shown here. Identical values can stand only once. “Also recorded” adds a separate entry of the source.
How the values were obtained:
female BALB/c mice [1] = test: Acute toxicity, single administration in mice; type: in vivo
Experimental: (§1) • Part I: Single administration. A total of 6 mice were used. They were randomly divided into 2 groups: the vehicle control and GEN1-284s (1000 mg/kg), dosed once by oral gavage and observed for 6 days, and changes in body weight and activities were recorded. • Part II: Multiple administrations. This experiment used a total of 6 mice. They were divided into two groups of 3: a GEN1-284s-1000 mg/kg group and a GEN1-284s-300 mg/kg group, and were intragastrically given GEN1-284s for 14 consecutive days at 200 μL each. The state and survival of the mice were observed every day, and their body weights were recorded. Two mice died 2 h after GEN1-284s-1000 mg/kg administration. The dose was changed to 600 mg/kg, and the experiment was continued.
This experiment used a total of 6 mice. They were randomly divided into two groups of 3: a vehicle group and a GEN1-284s-1000 mg/kg group, and were intragastrically dosed once on day 0 at 200 μL each. The state and survival of the mice were observed every day, and their body weights were recorded.
(§2) Changes in body weight and survival of the mice were observed during 6 days after the single administration, and changes in body weight and the survival of the mice were observed during 14 consecutive days of high-dose GEN1-284s administration.

female BALB/c mice [2] = test: Toxicity, multiple administrations for 14 days in mice; type: in vivo; conditions: female BALB/c mice
Experimental: as §1
This experiment used a total of 6 mice. They were divided into two groups of 3: a GEN1-284s-1000 mg/kg group and a GEN1-284s-300 mg/kg group, and were intragastrically given GEN1-284s for 14 consecutive days at 200 μL each. The state and survival of the mice were observed every day, and their body weights were recorded. Two mice died 2 h after GEN1-284s-1000 mg/kg administration. The dose was changed to 600 mg/kg, and the experiment was continued.
Each mouse was intragastrically administered GEN1-284s for 14 consecutive days in a volume of 200 μL/20 g. The state and survival of the mice were observed every day, and their body weights were recorded. Two mice died 2 h after GEN1-284s-1000 mg/kg administration. The dose was changed to 600 mg/kg, and the experiment was continued.
as §2

[3] = tested on: Apoe KO mouse atherosclerosis model; test: Atherosclerosis model: aortic plaque En-face staining and plaque area; type: in vivo, C57BL/6 Apoe KO mice; conditions: Apoe KO mice, high-fat diet; GEN1-284s 60 mpk QD oral
Experimental: Method: Apoe KO mice were tested for basal blood lipid levels and divided into a normal control group and a high-fat group. After 8 weeks of housing, the mice from the high-fat group were divided into 4 groups of about 8: a normal diet group (Chow), a high-fat diet model group (HFD), an Atorvastatin positive group (HFD+atorvastatin 5 mpk, QD), and a GEN1-284s group (284-60 mpk, QD). Oral administration was performed for 8 consecutive weeks, and the effect of the compound on the following indicators in Apoe KO mice was observed: 4 blood lipid tests (TC, TG, HDL-C and LDL-C), aortic plaque En-face staining, and pathological oil red staining of the cardiac outflow tract.
Mice from the groups except for the normal diet control group (Chow) were fed with high-fat feed every day for […]. From week 9, each group was orally administered solvent or a corresponding test compound, and body weight data were recorded every day for 8 consecutive weeks. After the first 8 weeks' high-fat diet, blood samples were taken and centrifuged to separate serum, and the serum was tested for blood lipid levels (TCHO, TG, LDL-C and HDL-C). The mice were randomly grouped according to the TCHO results and body weight. During the subsequent 8 weeks of administration, blood lipid tests (TCHO, TG, LDL-C and HDL-C) were run once every 4 weeks.
At the end of the experiment, the mice were euthanized by CO2 inhalation, and their hearts and aortas (from the aortic arch to the iliac artery) were isolated. The isolated artery was dissected longitudinally from the aortic arch to the iliac artery, fixed in 4% paraformaldehyde for 30 min, synchronized with 60% isopropanol for 10 min, then stained in 60% oil red for 30 min, and then washed with 60% isopropanol 3 times for 5 min each time. Finally, the stained aorta was washed with deionized water and photographed. The proportion of red plaque areas was measured using Image Pro Plus 6.0 (Media Cybernetics, MD, US).

[4] = tested on: IMQ-induced psoriasis mouse model; test: IMQ-induced psoriasis mouse model (PASI scoring); type: in vivo, Balb/c mice; conditions: IMQ-induced psoriasis mice; GEN1-284s 30 mg/kg PO qD
Experimental: Method: This experiment used a total of 19 mice. A natural skin observation control (n=1). 2 cm^2 of hair was shaved off the backs of […] on day 0, the stubble was removed with a mild depilatory cream, and the original skin was photographed. 62.5 mg of IMQ was applied to each of the mice. There was a mock group (n=6), a DEX (3 mg/kg, PO., qD) group (n=6), and a GEN1-284s (30 mg/kg, PO, qD) group (n=6). On the day of modeling, administration was performed in a volume of 100 μL/20 g body weight 4 h after IMQ application. The PASI scoring method was used to score the erythema, swelling and scaling on the skin of the mice. The experiment took a total of 6 days. The first day was set to day 0. IMQ application and administration were not performed on day 5. The mice were sacrificed with carbon dioxide at the end of the experiment.
The test animals were anesthetized with isoflurane. 2 cm^2 of hair was shaved off the backs of the mice, and the stubble was removed with a depilatory cream. IMQ application was performed for a total of 5 days, from day 0 to day 4. Scoring and IMQ application were performed every morning. Administration was performed in the afternoon
Desquamation (D): means epidermal cells flake off. The severity scores of skin lesions were as follows: • 0=none; this sign cannot be confirmed by careful observation • 1=mild; this sign can be confirmed but careful observation is required • 2=moderate; this sign is more visible and can be confirmed immediately • 3=severe; this sign is marked. • 4=very severe; this sign is very marked.
Induration I: 0—skin lesions are at the same level as normal skin; • 1—skin lesions are at slightly higher levels than normal skin surface; • 2—lesions moderately stick out and have round or slope-shaped borders; • 3—skin lesions are thick and markedly stick out; • 4—skin lesions are very thick and very markedly stick out.
Erythema E: • 0—no visible erythema; • 1—light red; • 2—red; • 3—dark red; • 4—the red is very dark

[5] = 300 mg/kg intragastric for 14 consecutive days

O=C(Cc1ccc2ncccc2c1)N1CCC(n2c(=O)n(COP(=O)([O-])[O-])c3cccc(C(F)(F)F)c32)CC1.[Na+].[Na+] [GEN1-284 salt, (2-Oxo-3-(1-(2-(quinolin-6-yl)acetyl)piperidin-4-yl)-4-(trifluoromethyl)-2,3-dihydro-1H-benzo[d]imidazol-1-yl)methyl disodium phosphate]
Changes in body weight after the single administration (female BALB/c mice [1]; 1000 mg/kg P.O once on day 0, Day 0, individual mice F4-F6): 23.5 and 21.2 and 21.1 | Changes in body weight after the single administration (female BALB/c mice [1]; 1000 mg/kg P.O once on day 0, Day 1, individual mice F4-F6): 23.8 and 21.5 and 22 | Changes in body weight after the single administration (female BALB/c mice [1]; 1000 mg/kg P.O once on day 0, Day 2, individual mice F4-F6): 23.5 and 21.9 and 21.7 | Changes in body weight after the single administration (female BALB/c mice [1]; 1000 mg/kg P.O once on day 0, Day 3, individual mice F4-F6): 24.1 and 21.8 and 20.3 | Changes in body weight after the single administration (female BALB/c mice [1]; 1000 mg/kg P.O once on day 0, Day 4, individual mice F4-F6): 24.3 and 21.8 and 22.7 | Changes in body weight after the single administration (female BALB/c mice [1]; 1000 mg/kg P.O once on day 0, Day 5, individual mice F4-F6): 23.8 and 21.6 and 23.4 | Changes in body weight after the single administration (female BALB/c mice [1]; 1000 mg/kg P.O once on day 0, Day 6, individual mice F4-F6): 23.4 and 21.6 and 22.8 | Effect of single administration on body weight, activity and survival (female BALB/c mice [1]; female BALB/c mice, 1000 mg/kg once by oral gavage, observed 6 days, 1000 mg/kg): did not affect the body weight or activity; also recorded: did not affect the survival and body weight of the animals | Change in body weight (female BALB/c mice [2]; [5]): no significant change in body weight | Survival (female BALB/c mice [2]; [5]): did not affect the survival of the mice | Number of mice that died (female BALB/c mice [2]; 600 mg/kg group, Day 4): 1 mouse | Number of mice that died 2 h after administration (female BALB/c mice [2]; 1000 mg/kg intragastric, day 1, group of 3): 2 mice | Time within which all mice died (female BALB/c mice [2]; continuous administration of 600 mg/kg): ≤ 5 days | Formation of atherosclerotic plaques [3]: significantly reduced the formation of atherosclerotic plaques | Swelling of the skin [4]: partially ameliorate the psoriatic swelling

From patent US20240391940A1, “FUSED RING-CONTAINING COMPOUND, APPLICATION THEREOF, AND COMPOSITION CONTAINING SAME” (GenEros Biopharma Ltd., priority 2020, published 2024)
